Test results published in patent publication EP2442784B1, “COMPOSITIONS AND METHODS FOR INHIBITING PAR2 ACTIVATION OF KERATINOCYTES” (THE PROCTER & GAMBLE COMPANY, priority 2010, dated 2012).

Biological target: T1, PAR-2 receptor (Homo sapiens, UniProt P55085)
T1 construct: host or cells: engineered cell line from DiscoveRx
T1 sequence (P55085 26-397): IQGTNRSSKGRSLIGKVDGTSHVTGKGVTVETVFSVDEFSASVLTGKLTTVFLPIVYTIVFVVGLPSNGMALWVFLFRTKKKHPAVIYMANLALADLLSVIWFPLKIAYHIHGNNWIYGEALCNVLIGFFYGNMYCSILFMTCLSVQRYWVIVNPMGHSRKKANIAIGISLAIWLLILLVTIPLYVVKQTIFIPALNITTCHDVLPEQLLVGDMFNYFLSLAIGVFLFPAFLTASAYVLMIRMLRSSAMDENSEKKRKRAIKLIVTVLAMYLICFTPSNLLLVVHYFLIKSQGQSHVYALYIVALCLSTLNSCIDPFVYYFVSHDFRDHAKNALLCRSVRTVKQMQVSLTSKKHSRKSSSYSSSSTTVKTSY
Assay: PAR-2 Inhibition Assay (beta arrestin recruitment / beta galactosidase complementation, luminescence; PAR2 activation by trypsin)
Assay type: cell-based
Settings: for PAR2 inhibitory effect (summary in words): over the dilution factors tested; for percent inhibition of PAR2 activation: activation by trypsin, triplicate
Text: PAR-2 Inhibition Assay - The assay principle relies on the recruitment of beta arrestin to the activated PAR-2 receptor resulting in the formation of an active beta galactosidase enzyme which can cleave a substrate causing a luminescent signal that can be quantitated. PAR-2 can be activated by either adding trypsin and also by adding SLIGRL peptide.
Cells expressing PAR-2 receptor coupled to the alpha fragment of beta galactosidase and expressing beta arrestin coupled to the beta fragment of beta galactosidase are obtained from DiscoveRx Corp., Freemont, CA. Cells are propagated in a culture medium of Dulbeccos Modified Eagle Medium supplemented with 10% heat-inactivated fetal bovine serum, 500 unit/mL penicillin, 500 ug/mL streptomycin, 800 ug/mL gentimicin, and 300 ug/mL hygromycin in T75 or T150 culture flasks (all media components available from Invitrogen Corp., Carlsbad, CA) in a CO2 incubator at 37°C. When cells reach approximately 80% confluency, the cells are detached from the flask using Cell Dissociation Buffer (available from Invitrogen Corp., Carlsbad, CA as item number 13151-014). The cells are counted using a hemocytometer and plated into 384 well plates at 10000 cells/well in 20 uL/well of Opti-MEM® media (available from Invitrogen Corp., Carlsbad, CA). The cells are cultured for 24 -48 hours.
To assay potential inhibitors of PAR2 activation by trypsin, each well is treated with 1 uL of the test material in water. Each test material is run in triplicate. The cells are incubated for 30 minutes in the CO2 incubator, after which 1 uL of trypsin is added (approximate 0.1 ug/uL). The cells are incubated for an hour in the CO2 incubator after which the cell lysis substrate solution (11 uL/well) is added. The lysis substrate solution is available in the PathHunter™ Detection Kit (catalogue #93-0001) from DiscoveRx Corp., Freemont, CA, in which the components are mixed in the following ratio: • Assay Buffer: Substrate 1: Substrate 2 = 19:5:1 The plates are briefly centrifuged (approximately 5 minutes) at 800 X g to remove bubbles and are then incubated at room temperature for 1 hr. Luminescence is read for each well on an Envision™ 2101 Multilabel Reader (available form PerkinElmer, Inc., Boston, MA). The range is determined by wells with solvent control + trypsin (high control) and by wells with solvent control and no trypsin (low control). The percent PAR2 inhibition of each treatment is calculated by the following formula of the luminescence signals: (1-([treatment luminescence-low control luminescence])/([high control luminescence-low control luminescence])) × 100 [formula] Statistics are done in Excel by Microsoft, Redmond, WA, using the T-test function, single tail with uneven distribution functions.
Using the assay outlined above, various concentrations and combinations of Laminaria Saccharina extract (e.g., Phlorogine), N-acyl Amino Acid (e.g., Sepiwhite), and vitamin B3 (e.g., niacinamide) were tested. Stock compositions of 1% Phlorogine (i.e., composition comprises approximately 0.025% - 0.01% Laminaria Saccharina extract), 1% Sepiwhite, 5% niacinamide, and combinations thereof are prepared and diluted prior to use. Test runs are performed at dilution factors of 0.045, 0.023, and 0.006. For clarity purposes, the 1% Sepiwhite composition diluted at a factor of 0.045 yields a test compositing comprising 0.045% Sepiwhite.

[1] = stock composition diluted at dilution factor 0.006
[2] = stock composition diluted at dilution factor 0.023
[3] = stock composition diluted at dilution factor 0.045 (e.g. 0.045% Sepiwhite), 100% = control without trypsin

Compound | PAR2 inhibitory effect (summary in words) | percent inhibition of PAR2 activation [1] [%] | percent inhibition of PAR2 activation [2] [%] | percent inhibition of PAR2 activation [3] [%]
C=CCCCCCCCCC(=O)N[C@@H](Cc1ccccc1)C(=O)O [1% Sepiwhite, N-undecylenoyl-L-phenylalanine] | inhibitory effect which is pronounced at higher dilutions | 14 | 35 | 53
NC(=O)c1cccnc1 [5% Niacinamide, niacinamide] | inhibitory effect which is pronounced at higher dilutions | 5 | 14 | 20
